A value given as a limit tells only on which side of the number the result lay.

The first experiment deals with T1, Kv1.3 potassium channel (Homo sapiens, UniProt P22001).
T1 construct: expressed in transfected cells
T1 sequence (P22001 whole entry): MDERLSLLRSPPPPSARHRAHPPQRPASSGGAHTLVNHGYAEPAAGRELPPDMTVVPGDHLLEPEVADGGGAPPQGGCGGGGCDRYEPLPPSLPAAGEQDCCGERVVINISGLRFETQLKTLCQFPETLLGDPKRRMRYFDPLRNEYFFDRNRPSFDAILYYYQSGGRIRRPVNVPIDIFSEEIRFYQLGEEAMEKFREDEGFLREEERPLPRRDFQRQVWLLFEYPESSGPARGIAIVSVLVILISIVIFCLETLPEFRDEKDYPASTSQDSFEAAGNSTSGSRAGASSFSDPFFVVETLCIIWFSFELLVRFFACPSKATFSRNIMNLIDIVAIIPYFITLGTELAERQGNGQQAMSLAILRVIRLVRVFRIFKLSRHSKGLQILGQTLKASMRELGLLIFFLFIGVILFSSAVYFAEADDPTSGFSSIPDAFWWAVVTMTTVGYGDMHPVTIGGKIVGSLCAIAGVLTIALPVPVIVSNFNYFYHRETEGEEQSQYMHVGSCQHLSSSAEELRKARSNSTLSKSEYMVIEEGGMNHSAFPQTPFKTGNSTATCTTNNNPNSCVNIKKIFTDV
The experiment can be described thus: Kv1.3 potassium channel blocker activity, automated whole-cell patch clamp (Patchliner). The class given is cell-based. Particulars: Table 6; CHO-K1 cells stably expressing Kv1.3; whole cell current, pulses -90 mV to +40 mV; read-out: Kv1.3_IC50. Here is the method: Example 67. Evaluation of Kv1.3 Potassium Channel Blocker Activities
The assay described below is used to evaluate the disclosed compound's activities as Kv1.3 potassium channel blockers.
CHO-K1 cells stably expressing Kv1.3 were grown in DMEM containing 10% heat-inactivated FBS, 1 mM Sodium Pyruvate, 2 mM L-Glutamine and G418 (500 μg/ml). Cells were grown in culture flasks at 37° C. in a 5% CO2-humidified incubator.
(§1) The cells were bathed in an extracellular solution containing 140 mM NaCl, 4 mM KCl, 2 mM CaCl2), 1 mM MgCl2, 5 mM Glucose, 10 mM HEPES; pH adjusted to 7.4 with NaOH; 295-305 mOsm. The internal solution contained 50 mM KCl, 10 mM NaCl, 60 mM KF, 20 mM EGTA, 10 mM HEPES; pH adjusted to 7.2 with KOH; 285 mOsm. All compounds were dissolved in DMSO at 30 mM. Compound stock solutions were freshly diluted with external solution to concentrations of 30 nM, 100 nM, 300 nM, 1 μM, 3 μM, 10 μM, 30 μM and 100 μM. The highest content of DMSO (0.3%) was present in 100 μM.
The currents were evoked by applying 100 ms depolarizing pulses from −90 mV (holding potential) to +40 mV were applied with 0.1 Hz frequency. Control (compound-free) and compound pulse trains for each compound concentration applied contained 20 pulses. 10 second breaks were used between pulse trains (see Table 4 below).
Whole cell current recordings and compound application were enabled by means of an automated patch clamp platform Patchliner (Nanion Technologies GmbH). EPC 10 patch clamp amplifier (HIEKA Elektronik Dr. Schulze GmbH) along with Patchmaster software (HIEKA Elektronik Dr. Schulze GmbH) was used for data acquisition. Data were sampled at 10 kHz without filtering. Passive leak currents were subtracted online using a P/4 procedure (HEKA Elektronik Dr. Schulze GmbH). Increasing compound concentrations were applied consecutively to the same cell without washouts in between. Total compound incubation time before the next pulse train was not longer than 10 seconds. Peak current inhibition was observed during compound equilibration.
(§2) AUC and peak values were obtained with Patchmaster (HEKA Elektronik Dr. Schulze GmbH). To determine IC50, the last single pulse in the pulse train corresponding to a given compound concentration was used. Obtained AUC and peak values in the presence of compound were normalized to control values in the absence of compound. Using Origin (OridinLab), IC50 was derived from data fit to Hill equation: Icompound/Icontrol=(100−A)/(1+([compound]/IC50)nH)+A, where IC50 value is the concentration at which current inhibition is half-maximal, [compound] is the applied compound concentration, A is the fraction of current that is not blocked and nH is the Hill coefficient.
(In general: In patch-clamp work, channel activity is measured electrically.)
As for `CC(=O)NC(c1ccncc1)c1c(O)ccc(Cl)c1Cl` (single isomer, unassigned) [Compound 41, N-((2,3-dichloro-6-hydroxyphenyl)(pyridin-4-yl)methyl)acetamide], the IC50 is under 1 µM.
Same read-out and setting: under `Oc1ccc(Cl)c(Cl)c1C(O)c1cccnc1` (stereo not drawn) [Compound 31, 3,4-dichloro-2-[hydroxy(pyridin-3-yl)methyl]phenol] stands under 1 µM.
On the same count and under the same terms, with `NC(c1ccncc1)c1c(O)ccc(Cl)c1Cl` (stereo not drawn) [Compound 11, 2-[amino(pyridin-4-yl)methyl]-3,4-dichlorophenol] the figure was under 10 µM; with `CC(=O)NC(c1ccncc1)c1c(O)ccc(Cl)c1Cl` (single isomer, unassigned) [Compound 38, N-((2,3-dichloro-6-hydroxyphenyl)(pyridin-4-yl)methyl)acetamide], under 30 µM; with `NC(c1ccncc1)c1cc(Cl)c(Cl)cc1O` (stereo not drawn) [Compound 6, 2-[amino(pyridin-4-yl)methyl]-4,5-dichlorophenol], under 10 µM.
As for `CC(=O)NC(c1ccncc1)c1cc(Cl)c(Cl)cc1O` (stereo not drawn) [Compound 19, N-[(4,5-dichloro-2-hydroxyphenyl)(pyridin-4-yl)methyl]acetamide], the IC50 was under 10 µM.
Still for that read-out and setting: under `O=C(N[C@@H](c1ccncc1)c1c(O)ccc(Cl)c1Cl)[C@@H]1CCCN1` (single isomer, unassigned) [Compound 65] stands under 30 µM; under `Oc1ccc(Cl)c(Cl)c1Cc1ccncc1` [Compound 22, 3,4-dichloro-2-[(pyridin-4-yl)methyl]phenol], under 10 µM; under `NC(c1ccccc1)c1c(O)ccc(Cl)c1Cl` (stereo not drawn) [Compound 3, 2-[amino(phenyl)methyl]-3,4-dichlorophenol], under 30 µM.
Same read-out and setting: under `NC(=O)c1cc(C(O)c2c(O)ccc(Cl)c2Cl)ccn1` (stereo not drawn) [Compound 23, 4-[(2,3-dichloro-6-hydroxyphenyl)(hydroxy)methyl]pyridine-2-carboxamide] stands under 10 µM.
The same measure, in the same setting: with `Oc1ccc2ccccc2c1C(O)c1ccncc1` (stereo not drawn) [Compound 32, 1-[hydroxyl(pyridin-4-yl)methyl]naphthalen-2-ol] the figure was under 10 µM; with `Cn1cc(C(c2ccncc2)c2c(O)ccc(Cl)c2Cl)cn1` (stereo not drawn) [Compound 74, 3,4-dichloro-2-[(1-methyl-1H-pyrazol-4-yl)(pyridin-4-yl)methyl]phenol], under 30 µM; with `O=C(NC(c1ccncc1)c1c(O)ccc(Cl)c1Cl)c1cn[nH]c1` (stereo not drawn) [Compound 57, N-[(2,3-dichloro-6-hydroxyphenyl)(pyridin-4-yl)methyl]-1H-pyrazole-4-carboxamide], under 30 µM.
`NC(c1ccc(=O)[nH]c1)c1cc(Cl)c(Cl)cc1O` (stereo not drawn) [Compound 15, 5-[amino(4,5-dichloro-2-hydroxyphenyl)methyl]-1,2-dihydropyridin-2-one]: the IC50 was under 10 µM.
For `O=C(N[C@H](c1ccncc1)c1c(O)ccc(Cl)c1Cl)[C@H]1CCCN1` (single isomer, unassigned) [Compound 66], the IC50 is under 30 µM.
Same read-out and setting: with `Cc1cnccc1C(O)c1c(O)ccc(Cl)c1Cl` (single isomer, unassigned) [Compound 43, 3,4-dichloro-2-[hydroxy(3-methylpyridin-4-yl)methyl]phenol] the figure was under 30 µM; with `CN(C(=O)C1CNC1)C(c1ccncc1)c1c(O)ccc(Cl)c1Cl` (stereo not drawn) [Compound 71, N-[(2,3-dichloro-6-hydroxyphenyl)(pyridin-4-yl)methyl]-N-methylazetidine-3-carboxamide], under 30 µM; with `Oc1ccc(Cl)c(Cl)c1C(O)c1ccc2[nH]ccc2c1` (stereo not drawn) [Compound 52, 3,4-dichloro-2-[hydroxy(1H-indol-5-yl)methyl]phenol], under 30 µM.
Still for that read-out and setting: under `NC(c1cn[nH]c1)c1c(O)ccc(Cl)c1Cl` (stereo not drawn) [Compound 7, 2-[amino(1H-pyrazol-4-yl)methyl]-3,4-dichlorophenol] stands under 30 µM; under `NC(=O)c1cc(Cc2c(O)ccc(Cl)c2Cl)ccn1` [Compound 24, 4-[(2,3-dichloro-6-hydroxyphenyl)methyl]pyridine-2-carboxamide], under 10 µM; under `NC(=O)c1cnccc1Cc1cc(Cl)c(Cl)cc1O` [Compound 4, 4-[(4,5-dichloro-2-hydroxyphenyl)methyl]pyridine-3-carboxamide], under 10 µM.
Consider `Oc1ccc(Cl)c(Cl)c1C(O)c1ccc2cc[nH]c2c1` (stereo not drawn) [Compound 48, 3,4-dichloro-2-[hydroxy(1H-indol-6-yl)methyl]phenol], for which the IC50 was under 10 µM.

Still in this experiment, the particulars now being: Table 7; CHO-K1 cells stably expressing Kv1.3; whole cell current, pulses -90 mV to +40 mV; read-out: Kv1.3_IC50.
As for `C[C@@H](NC(=O)[C@H]1CCCNC1)c1c(O)ccc(Cl)c1Cl` [Compound 78, (3S)-N-[(1R)-1-(2,3-dichloro-6-hydroxyphenyl)ethyl]piperidine-3-carboxamide], the IC50 was under 1 µM.
Same read-out and setting: under `Cc1cc(O)c(C(N)CNC(=O)CO)cc1Cl` (stereo not drawn) [Compound 96, N-[2-amino-2-(5-chloro-2-hydroxy-4-methylphenyl)ethyl]-hydroxyacetamide] stands under 10 µM; under `C[C@H](NC(=O)[C@H]1CCCNC1)c1c(O)ccc(Cl)c1Cl` [Compound 80, (3S)-N-[(1S)-1-(2,3-dichloro-6-hydroxyphenyl)ethyl]piperidine-3-carboxamide], under 10 µM.
Same read-out and setting: with `C[C@H](NC(=O)C1CNC1)c1cc(Cl)c(Cl)cc1O` [Compound 86, N-[(1S)-1-(4,5-dichloro-2-hydroxyphenyl)ethyl]azetidine-3-carboxamide] the figure was under 10 µM; with `C[C@@H](NC(=O)C1CNC1)c1c(O)ccc(Cl)c1Cl` [Compound 77, N-[(1R)-1-(2,3-dichloro-6-hydroxyphenyl)ethyl]azetidine-3-carboxamide], under 1 µM; with `C[C@H](NC(=O)[C@H]1CCNC1)c1c(O)ccc(Cl)c1Cl` [Compound 93, (3S)-N-[(1S)-1-(2,3-dichloro-6-hydroxyphenyl)ethyl]pyrrolidine-3-carboxamide], under 1 µM.
The same measure, in the same setting: with `Cc1cc(O)c([C@H](C)NC(=O)C2CNC2)cc1Cl` [Compound 82, N-[(1S)-1-(5-chloro-2-hydroxy-4-methylphenyl)ethyl]azetidine-3-carboxamide] the figure was under 10 µM.
On to `C[C@H](NC(=O)[C@@H]1CCCNC1)c1c(O)ccc(Cl)c1Cl` [Compound 81, (3R)-N-[(1S)-1-(2,3-dichloro-6-hydroxyphenyl)ethyl]piperidine-3-carboxamide], for which the IC50 was under 1 µM.

The target in another experiment is T2, hERG channel (Homo sapiens, UniProt Q12809).
T2 construct: expressed in transfected cells
T2 sequence (Q12809 whole entry): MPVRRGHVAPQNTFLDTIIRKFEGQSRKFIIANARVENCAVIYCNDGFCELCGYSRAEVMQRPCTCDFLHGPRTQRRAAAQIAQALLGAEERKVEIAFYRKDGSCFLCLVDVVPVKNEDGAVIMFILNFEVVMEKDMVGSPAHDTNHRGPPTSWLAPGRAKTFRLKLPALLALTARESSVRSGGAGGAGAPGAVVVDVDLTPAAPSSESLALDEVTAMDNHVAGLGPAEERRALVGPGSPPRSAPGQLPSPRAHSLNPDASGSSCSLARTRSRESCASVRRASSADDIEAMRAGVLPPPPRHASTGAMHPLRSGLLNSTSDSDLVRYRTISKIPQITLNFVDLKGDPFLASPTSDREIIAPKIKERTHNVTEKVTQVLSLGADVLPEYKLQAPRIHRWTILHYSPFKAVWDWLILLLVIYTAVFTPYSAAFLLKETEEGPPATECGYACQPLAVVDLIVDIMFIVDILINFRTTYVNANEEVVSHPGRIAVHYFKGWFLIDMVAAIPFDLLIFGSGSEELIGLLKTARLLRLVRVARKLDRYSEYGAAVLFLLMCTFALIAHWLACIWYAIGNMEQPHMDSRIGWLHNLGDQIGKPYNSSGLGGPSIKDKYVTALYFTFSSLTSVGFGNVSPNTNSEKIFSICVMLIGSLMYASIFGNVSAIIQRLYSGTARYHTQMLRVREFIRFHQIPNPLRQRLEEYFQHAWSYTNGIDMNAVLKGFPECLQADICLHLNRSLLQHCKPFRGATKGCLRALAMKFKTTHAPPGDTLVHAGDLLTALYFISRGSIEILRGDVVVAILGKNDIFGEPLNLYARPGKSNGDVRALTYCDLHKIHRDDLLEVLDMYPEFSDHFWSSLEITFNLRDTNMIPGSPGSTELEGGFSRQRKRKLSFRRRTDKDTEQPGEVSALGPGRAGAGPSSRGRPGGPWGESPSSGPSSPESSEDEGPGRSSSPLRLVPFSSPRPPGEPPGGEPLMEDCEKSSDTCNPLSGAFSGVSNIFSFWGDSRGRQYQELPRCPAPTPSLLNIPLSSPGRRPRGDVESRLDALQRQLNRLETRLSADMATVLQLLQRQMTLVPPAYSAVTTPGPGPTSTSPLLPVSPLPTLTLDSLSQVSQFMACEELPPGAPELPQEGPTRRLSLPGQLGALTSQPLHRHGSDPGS
The experiment can be described thus: hERG electrophysiology, automated whole-cell patch clamp (Patchliner). The class given is cell-based. Particulars: Table 6; CHO-K1 cells stably expressing hERG; whole cell current, tail current protocol; read-out: hERG_IC50. Here is the method: Example 68. Evaluation of hERG Activities
This assay is used to evaluate the disclosed compounds' inhibition activities against the hERG channel.
CHO-K1 cells stably expressing hERG were grown in Ham's F-12 Medium with Glutamine containing 10% heat-inactivated FBS, 1% Penicillin/Streptomycin, Hygromycin (100 μg/ml) and G418 (100 μg/ml). Cells were grown in culture flasks at 37° C. in a 5% CO2-humidified incubator.
as §1
The voltage protocol (see Table 5) was designed to simulate voltage changes during a cardiac action potential with a 300 ms depolarization to +20 mV (analogous to the plateau phase of the cardiac action potential), a repolarization for 300 ms to −50 mV (inducing a tail current) and a final step to the holding potential of −80 mV. The pulse frequency was 0.3 Hz. Control (compound-free) and compound pulse trains for each compound concentration applied contained 70 pulses.
Whole cell current recordings and compound application were enabled by means of an automated patch clamp platform Patchliner (Nanion). EPC 10 patch clamp amplifier (HEKA) along with Patchmaster software (HEKA Elektronik Dr. Schulze GmbH) was used for data acquisition. Data were sampled at 10 kHz without filtering. Increasing compound concentrations were applied consecutively to the same cell without washouts in between.
as §2, with “PEAK” for “peak”, “IC50” for “IC50,”, “IC50” for “IC50 value”
In general terms: The hERG channel carries a current that helps repolarise heart muscle cells.
`CC(=O)NC(c1ccncc1)c1c(O)ccc(Cl)c1Cl` (single isomer, unassigned) [Compound 41, N-((2,3-dichloro-6-hydroxyphenyl)(pyridin-4-yl)methyl)acetamide]: the IC50 is over 30 µM.
For `Oc1ccc(Cl)c(Cl)c1C(O)c1cccnc1` (stereo not drawn) [Compound 31, 3,4-dichloro-2-[hydroxy(pyridin-3-yl)methyl]phenol], the IC50 was over 30 µM.
Still for that read-out and setting: under `NC(c1ccncc1)c1c(O)ccc(Cl)c1Cl` (stereo not drawn) [Compound 11, 2-[amino(pyridin-4-yl)methyl]-3,4-dichlorophenol] stands over 30 µM; under `CC(=O)NC(c1ccncc1)c1c(O)ccc(Cl)c1Cl` (single isomer, unassigned) [Compound 38, N-((2,3-dichloro-6-hydroxyphenyl)(pyridin-4-yl)methyl)acetamide], over 30 µM.
On the same count and under the same terms, under `NC(c1ccncc1)c1cc(Cl)c(Cl)cc1O` (stereo not drawn) [Compound 6, 2-[amino(pyridin-4-yl)methyl]-4,5-dichlorophenol] stands over 30 µM.

The same experiment, now with this note: Table 7; CHO-K1 cells stably expressing hERG; whole cell current, tail current protocol; read-out: hERG_IC50.
On to `C[C@@H](NC(=O)[C@H]1CCCNC1)c1c(O)ccc(Cl)c1Cl` [Compound 78, (3S)-N-[(1R)-1-(2,3-dichloro-6-hydroxyphenyl)ethyl]piperidine-3-carboxamide], for which the IC50 was over 30 µM.
